The results in this text go back to ChEMBL document CHEMBL5380837, “Structure-Activity Relationships of Truncated 1'-Homologated Carbaadenosine Derivatives as New PPARγ/δ Ligands: A Study on Sugar Puckering Affecting Binding to PPARs” (J Med Chem, 2023).

As usually defined, the Ki is a measure of affinity in units of concentration, obtained from inhibition or displacement. As a reminder, the EC50 is the concentration at which the effect is half-maximal.

For assay [1], the target named is T1, Peroxisome proliferator-activated receptor alpha (Homo sapiens) (UniProt Q07869).
T1 sequence (whole entry): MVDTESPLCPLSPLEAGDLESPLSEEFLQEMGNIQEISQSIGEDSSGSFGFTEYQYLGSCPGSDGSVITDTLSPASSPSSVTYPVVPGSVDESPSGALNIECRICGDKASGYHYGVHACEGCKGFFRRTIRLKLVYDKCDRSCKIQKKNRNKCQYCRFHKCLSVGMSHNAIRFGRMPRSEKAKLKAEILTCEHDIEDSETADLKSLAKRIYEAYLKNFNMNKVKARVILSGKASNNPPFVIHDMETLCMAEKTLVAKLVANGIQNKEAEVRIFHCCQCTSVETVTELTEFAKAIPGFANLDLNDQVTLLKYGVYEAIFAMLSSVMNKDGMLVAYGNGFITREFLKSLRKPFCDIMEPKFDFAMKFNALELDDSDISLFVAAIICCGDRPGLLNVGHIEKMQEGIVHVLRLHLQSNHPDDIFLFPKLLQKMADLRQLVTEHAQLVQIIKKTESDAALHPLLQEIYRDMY
Briefly: Binding affinity to PPARalpha (unknown origin) at 30 uM by TR-FRET based LanthaScreen competitive binding assay relative to control. For orientation: In TR-FRET formats the signal depends on donor and acceptor labels being close together.

Assay [2] has as its target T2, Peroxisome proliferator-activated receptor delta (Homo sapiens, UniProt Q03181).
T2 sequence (Q03181 whole entry): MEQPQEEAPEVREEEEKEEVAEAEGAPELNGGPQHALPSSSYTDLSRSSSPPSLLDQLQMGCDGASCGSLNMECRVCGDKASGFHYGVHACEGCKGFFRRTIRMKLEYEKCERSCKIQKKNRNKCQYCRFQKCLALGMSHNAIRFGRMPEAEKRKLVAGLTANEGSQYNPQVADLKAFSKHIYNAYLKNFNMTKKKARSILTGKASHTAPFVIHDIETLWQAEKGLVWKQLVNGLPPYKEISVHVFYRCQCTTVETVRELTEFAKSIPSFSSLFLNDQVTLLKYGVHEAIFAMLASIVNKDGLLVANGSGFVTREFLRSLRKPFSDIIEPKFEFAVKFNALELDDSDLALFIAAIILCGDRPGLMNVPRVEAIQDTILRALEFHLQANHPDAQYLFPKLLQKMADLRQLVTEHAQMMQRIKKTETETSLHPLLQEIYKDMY
Briefly: Binding affinity to PPARdelta (unknown origin) assessed as inhibition constant by TR-FRET based LanthaScreen competitive binding assay.

Assay [3] addresses T3, Peroxisome proliferator-activated receptor delta (Homo sapiens) (UniProt Q03181).
T3 sequence (whole entry): T2 sequence (Q03181 whole entry)
Briefly: Binding affinity to PPARdelta (unknown origin) at 30 uM by TR-FRET based LanthaScreen competitive binding assay relative to control.

The target of assay [4] is T4, Peroxisome proliferator-activated receptor gamma (Homo sapiens, UniProt P37231).
T4 sequence (P37231 whole entry): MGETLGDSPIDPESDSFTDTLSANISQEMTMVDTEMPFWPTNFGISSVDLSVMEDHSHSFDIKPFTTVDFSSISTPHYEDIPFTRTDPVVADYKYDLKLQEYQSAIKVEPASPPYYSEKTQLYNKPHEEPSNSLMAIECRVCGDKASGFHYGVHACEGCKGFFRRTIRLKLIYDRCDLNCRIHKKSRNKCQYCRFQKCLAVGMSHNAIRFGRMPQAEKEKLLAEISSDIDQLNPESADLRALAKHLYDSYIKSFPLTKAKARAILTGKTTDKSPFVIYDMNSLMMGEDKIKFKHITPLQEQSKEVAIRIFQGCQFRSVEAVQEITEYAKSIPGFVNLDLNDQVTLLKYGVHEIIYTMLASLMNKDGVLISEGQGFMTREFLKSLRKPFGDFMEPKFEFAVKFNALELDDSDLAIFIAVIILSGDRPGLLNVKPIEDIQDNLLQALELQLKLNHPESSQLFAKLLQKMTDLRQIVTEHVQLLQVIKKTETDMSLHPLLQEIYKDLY
As to the kind of experiment: Binding affinity to PPARgamma (unknown origin) assessed as inhibition constant by TR-FRET based LanthaScreen competitive binding assay.

Assay [5] has as its target T2, Peroxisome proliferator-activated receptor delta. As to the kind of experiment: Antagonist activity at PPARdelta LBD (unknown origin) assessed as increase in fluorescein labeled SMRT-ID2 corepressor peptide requirement by TR-FRET assay.

In assay [1], `O[C@@H]1[C@H](O)C=C[C@H]1Cn1cnc2c(NCc3cccc(Cl)c3)nc(Cl)nc21` showed an Activity of 4%. Moreover, the Ki in assay [2] was 2.49 µM.

Take `O[C@H]1[C@H](Cn2cnc3c(NCc4cccc(I)c4)ncnc32)CC[C@H]1O`: the Activity in assay [1] came to 5.3%; in assay [3], 39.4%.

On to `O[C@H]1[C@H](Cn2cnc3c(NCc4cccc(Br)c4)ncnc32)CC[C@H]1O`, for which the Activity in assay [1] came to 6.6%; in assay [3], 12.9%.

Take `O[C@@H]1[C@H](O)[C@@H]2C[C@@H]2[C@H]1Cn1cnc2c(NCc3cccc(Cl)c3)ncnc21`: the Activity was determined as 6% in assay [1] and 13.4% in assay [3].

Regarding `O[C@@H]1[C@H](O)[C@@H]2C[C@@H]2[C@H]1Cn1cnc2c(NCc3cccc(F)c3)nc(Cl)nc21`, the Activity in assay [1] came to 3.6%; in assay [3] (filed as antagonist), 46.3%.

As for `O[C@@H]1[C@H](O)[C@@H]2C[C@@H]2[C@H]1Cn1cnc2c(NCc3cccc(Br)c3)ncnc21`, the Activity in assay [1] came to 8.3%; in assay [3] it was 20%.

For the compound `O[C@H]1[C@H](Cn2cnc3c(NCc4cccc(Cl)c4)nc(Cl)nc32)CC[C@H]1O`, the Activity in assay [1] worked out at 5.1%. Further, in assay [2], the Ki came to 1.62 µM.

Turning to `O[C@@H]1C[C@@H]2C[C@]2(Cn2cnc3c(NCc4cccc(Cl)c4)ncnc32)[C@@H]1O`, the Activity in assay [1] was found to be 6.9%; in assay [3], 2%.

For the compound `O[C@@H]1C[C@@H]2C[C@]2(Cn2cnc3c(NCc4cccc(Br)c4)ncnc32)[C@@H]1O`, the Activity was found to be 5.6% in assay [1] and 9.2% in assay [3].

Take `O[C@@H]1[C@H](O)[C@@H]2C[C@@H]2[C@H]1Cn1cnc2c(NCc3ccccc3I)nc(Cl)nc21`: the Activity in assay [1] was 3.8%; in assay [3] it was 34.6%. The inhibition constant Ki in assay [4] came out at 2.3 µM.

With `O[C@@H]1C[C@@H]2C[C@]2(Cn2cnc3c(NCc4cccc(I)c4)ncnc32)[C@@H]1O`, the Activity in assay [1] amounted to 9.4%; in assay [3], 8.6%.

In the case of `O[C@@H]1[C@H](O)C=C[C@H]1Cn1cnc2c(NCc3cccc(Br)c3)ncnc21`, the Activity in assay [1] was 0.7%; in assay [3], 4.2%.

Consider `O[C@H]1[C@H](Cn2cnc3c(NCc4cccc(Cl)c4)ncnc32)CC[C@H]1O`, for which the Activity in assay [1] turned out to be 4%; in assay [3], 2%.

With `O[C@@H]1[C@H](O)C=C[C@H]1Cn1cnc2c(NCc3cccc(F)c3)ncnc21`, the Activity in assay [1] turned out to be 5.2%; in assay [3], 2.4%.

`O[C@@H]1[C@H](O)C=C[C@H]1Cn1cnc2c(NCc3cccc(I)c3)ncnc21`: the Activity in assay [1] stood at 4.1%; in assay [3] it was 7.3%.

`COC(=O)c1sccc1S(=O)(=O)Nc1ccc(Nc2ccccc2)cc1OC` yielded an Activity in assay [1] of 6.4%.

On to `O[C@H]1[C@H](Cn2cnc3c(NCc4cccc(F)c4)ncnc32)CC[C@H]1O`, for which the results for the Activity in assay [1] and in assay [3] were 63% and 4.8%, respectively.

Consider `O[C@@H]1C[C@@H]2C[C@]2(Cn2cnc3c(NCc4cccc(F)c4)ncnc32)[C@@H]1O`, for which the results for the Activity in assay [1] and in assay [3] were 2.7% and 7.4%, respectively.

On to `O[C@@H]1[C@H](O)[C@@H]2C[C@@H]2[C@H]1Cn1cnc2c(NCc3cccc(F)c3)ncnc21`, for which the Activity in assay [1] came to 7.1%; in assay [3], 0.8%.

Take `O[C@H]1[C@H](Cn2cnc3c(NCc4cccc(F)c4)nc(Cl)nc32)CC[C@H]1O`: the figures for the Activity in assay [1] and in assay [3] were 6.5% and 37%, respectively.

For the compound `O[C@@H]1[C@H](O)C=C[C@H]1Cn1cnc2c(NCc3cccc(F)c3)nc(Cl)nc21`, the Activity worked out at 7% in assay [1] and 28.4% in assay [3].

Turning to `O[C@@H]1[C@H](O)CO[C@H]1Cn1cnc2c(NCc3cccc(Br)c3)nc(Cl)nc21`, in assay [1], the Activity was 0.3%. The Ki was found to be 3.6 µM in assay [4] and 0.374 µM in assay [2]. Further, the half-maximal effective concentration (EC50) in assay [5] is 26.4 µM.

Compound `O[C@@H]1[C@H](O)[C@@H]2C[C@@H]2[C@H]1Cn1cnc2c(NCc3cccc(Cl)c3)nc(Cl)nc21` had an Activity in assay [1] of 3.8%. The inhibition constant Ki in assay [2] worked out at 0.978 µM.

Turning to `O[C@@H]1[C@H](O)[C@@H]2C[C@@H]2[C@H]1Cn1cnc2c(NCc3cccc(I)c3)ncnc21`, the Activity in assay [1] amounted to 4.6%; in assay [3] (filed as antagonist), 45.8%.

`O[C@@H]1C[C@@H]2C[C@]2(Cn2cnc3c(NCc4cccc(F)c4)nc(Cl)nc32)[C@@H]1O`: the Activity in assay [1] came to 1.7%; in assay [3], 11.9%.

`O[C@@H]1[C@H](O)[C@@H]2C[C@@H]2[C@H]1Cn1cnc2c(NCc3ccc(I)cc3)nc(Cl)nc21`: the Activity in assay [1] worked out at 2.7%. Moreover, in assay [2], the Ki turned out to be 1.15 µM.

Regarding `O[C@@H]1[C@H](O)C=C[C@H]1Cn1cnc2c(NCc3cccc(Cl)c3)ncnc21`, the values for the Activity in assay [1] and in assay [3] were 0.8% and 5.9%, respectively.

Compound `COc1cccc(CNc2nc(Cl)nc3c2ncn3C[C@H]2[C@H](O)[C@H](O)[C@@H]3C[C@H]23)c1` gave an Activity in assay [1] of 9.2%. The inhibition constant (Ki) in assay [2] came to 0.292 µM.

`Cc1cc(SCc2sc(-c3ccc(C(F)(F)F)cc3)nc2C)ccc1OCC(=O)O`: the Activity in assay [1] came out at 34.9%.
